Assay: Solubility (saturated concentration) of cis-TMCD and trans-TMCD in various solvents, by gas chromatography
Type: physicochemical
Procedure: All concentrations were measured by gas chromatography. Water concentration was measured by Karl Fischer titrations.
The solubility of cis-TMCD and trans-TMCD in various solvents was determined by charging cis-TMCD, trans-TMCD, and the solvent or solvents of interest into a 120 ml jacketed glass vessel. The vessel was equipped with a stir bar in order to provide mixing and the jacket was used to control the temperature of the vessel contents. The vessel was equipped with charging and sampling ports on top of the vessel.
The slurry was allowed to stand for a time sufficient for the solids to saturate the solvent at the desired temperature. At that time, a sample of the solution was withdrawn from the cell using a fritted pipette so as to remove only the liquid phase. The sample was analyzed for cis-TMCD and trans-TMCD isomer content. These values represent the saturated concentration of each isomer at the sampling temperature.
After this, the cell contents were heated to the next desired temperature and the contents were held for another time interval sufficient to allow the slurry to equilibrate. A sample was then taken of the solution and analyzed. Following this procedure, solubility data was collected up to the final desired temperature.
The reported solubility of each isomer at a given temperature for a given solvent is expressed as a weight % relative to the saturated concentration of the isomer at the highest temperature reported for a given solvent.

Relative solubility (2-Ethylhexanol, 0.7° C., relative to 89.8° C.): 11% relative wt % | Relative solubility (2-Ethylhexanol, 12.5° C., relative to 89.8° C.): 15% relative wt % | Relative solubility (2-Ethylhexanol, 24.7° C., relative to 89.8° C.): 20% relative wt % | Relative solubility (2-Ethylhexanol, 40.0° C., relative to 89.8° C.): 28% relative wt % | Relative solubility (2-Ethylhexanol, 49.9° C., relative to 89.8° C.): 36% relative wt % | Relative solubility (2-Ethylhexanol, 60.2° C., relative to 89.8° C.): 45% relative wt % | Relative solubility (2-Ethylhexanol, 69.3° C., relative to 89.8° C.): 57% relative wt % | Relative solubility (2-Ethylhexanol, 79.3° C., relative to 89.8° C.): 75% relative wt % | Relative solubility (2-Ethylhexanol, 89.8° C., relative to 89.8° C.): 100% relative wt % | Relative solubility (2-Ethylhexyl Acetate, 5.9° C., relative to 79.4° C.): 6% relative wt % | Relative solubility (2-Ethylhexyl Acetate, 15.5° C., relative to 79.4° C.): 9% relative wt % | Relative solubility (2-Ethylhexyl Acetate, 25.1° C., relative to 79.4° C.): 12% relative wt % | Relative solubility (2-Ethylhexyl Acetate, 40.5° C., relative to 79.4° C.): 22% relative wt % | Relative solubility (2-Ethylhexyl Acetate, 49.8° C., relative to 79.4° C.): 32% relative wt % | Relative solubility (2-Ethylhexyl Acetate, 49.9° C., relative to 79.4° C.): 33% relative wt % | Relative solubility (2-Ethylhexyl Acetate, 60.5° C., relative to 79.4° C.): 48% relative wt % | Relative solubility (2-Ethylhexyl Acetate, 70.3° C., relative to 79.4° C.): 74% relative wt % | Relative solubility (2-Ethylhexyl Acetate, 79.4° C., relative to 79.4° C.): 100% relative wt % | Relative solubility (2-Ethylhexyl Acetate, −5.0° C., relative to 79.4° C.): 4% relative wt % | Relative solubility (CHDM, 69.0° C., relative to 106.9° C.): 54% relative wt % | Relative solubility (CHDM, 79.2° C., relative to 106.9° C.): 74% relative wt % | Relative solubility (CHDM, 88.9° C., relative to 106.9° C.): 80% relative wt % | Relative solubility (CHDM, 95.6° C., relative to 106.9° C.): 91% relative wt % | Relative solubility (CHDM, 106.9° C., relative to 106.9° C.): 100% relative wt % | Relative solubility (Dimethyl Carbonate, 6.2° C., relative to 70.1° C.): 7% relative wt % | Relative solubility (Dimethyl Carbonate, 16.3° C., relative to 70.1° C.): 9% relative wt % | Relative solubility (Dimethyl Carbonate, 25.7° C., relative to 70.1° C.): 14% relative wt % | Relative solubility (Dimethyl Carbonate, 40.5° C., relative to 70.1° C.): 27% relative wt % | Relative solubility (Dimethyl Carbonate, 54.7° C., relative to 70.1° C.): 54% relative wt % | Relative solubility (Dimethyl Carbonate, 70.1° C., relative to 70.1° C.): 100% relative wt % | Relative solubility (Ethanol, 5.3° C., relative to 60.3° C.): 51% relative wt % | Relative solubility (Ethanol, 14.3° C., relative to 60.3° C.): 55% relative wt % | Relative solubility (Ethanol, 25.5° C., relative to 60.3° C.): 76% relative wt % | Relative solubility (Ethanol, 39.9° C., relative to 60.3° C.): 82% relative wt % | Relative solubility (Ethanol, 50.1° C., relative to 60.3° C.): 92% relative wt % | Relative solubility (Ethanol, 60.3° C., relative to 60.3° C.): 100% relative wt % | Relative solubility (Ethyl Acetate, 4.2° C., relative to 54.9° C.): 16% relative wt % | Relative solubility (Ethyl Acetate, 15.0° C., relative to 54.9° C.): 25% relative wt % | Relative solubility (Ethyl Acetate, 26.2° C., relative to 54.9° C.): 38% relative wt % | Relative solubility (Ethyl Acetate, 40.5° C., relative to 54.9° C.): 62% relative wt % | Relative solubility (Ethyl Acetate, 54.9° C., relative to 54.9° C.): 100% relative wt % | Relative solubility (Ethyl Acetate, −5.1° C., relative to 54.9° C.): 12% relative wt % | Relative solubility (Ethylene Glycol, 26.5° C., relative to 91.4° C.): 24% relative wt % | Relative solubility (Ethylene Glycol, 36.2° C., relative to 91.4° C.): 32% relative wt % | Relative solubility (Ethylene Glycol, 48.5° C., relative to 91.4° C.): 44% relative wt % | Relative solubility (Ethylene Glycol, 61.5° C., relative to 91.4° C.): 61% relative wt % | Relative solubility (Ethylene Glycol, 72.1° C., relative to 91.4° C.): 68% relative wt % | Relative solubility (Ethylene Glycol, 82.2° C., relative to 91.4° C.): 82% relative wt % | Relative solubility (Methanol, 16.9° C., relative to 41.3° C.): 82% relative wt % | Relative solubility (Methanol, 25.6° C., relative to 41.3° C.): 89% relative wt % | Relative solubility (Methanol, 41.3° C., relative to 41.3° C.): 100% relative wt % | Relative solubility (Methanol, −2.5° C., relative to 41.3° C.): 70% relative wt % | Relative solubility (Methyl Acetate, 5.9° C., relative to 49.8° C.): 14% relative wt % | Relative solubility (Methyl Acetate, 15.5° C., relative to 49.8° C.): 22% relative wt % | Relative solubility (Methyl Acetate, 25.1° C., relative to 49.8° C.): 33% relative wt % | Relative solubility (Methyl Acetate, 40.5° C., relative to 49.8° C.): 59% relative wt % | Relative solubility (Methyl Acetate, 49.8° C., relative to 49.8° C.): 100% relative wt % | Relative solubility (Methyl Acetate, −5.0° C., relative to 49.8° C.): 9% relative wt % | Relative solubility (Methyl i-Butyl Carbinol, 9.4° C., relative to 81.9° C.): 18% relative wt % | Relative solubility (Methyl i-Butyl Carbinol, 20.4° C., relative to 81.9° C.): 23% relative wt % | Relative solubility (Methyl i-Butyl Carbinol, 31.1° C., relative to 81.9° C.): 29% relative wt % | Relative solubility (Methyl i-Butyl Carbinol, 40.0° C., relative to 81.9° C.): 39% relative wt % | Relative solubility (Methyl i-Butyl Carbinol, 49.5° C., relative to 81.9° C.): 47% relative wt % | Relative solubility (Methyl i-Butyl Carbinol, 60.0° C., relative to 81.9° C.): 60% relative wt % | Relative solubility (Methyl i-Butyl Carbinol, 69.5° C., relative to 81.9° C.): 77% relative wt % | Relative solubility (Methyl i-Butyl Carbinol, 81.9° C., relative to 81.9° C.): 100% relative wt % | Relative solubility (i-Butyl Acetate, 4.8° C., relative to 90.1° C.): 6% relative wt % | Relative solubility (i-Butyl Acetate, 16.9° C., relative to 90.1° C.): 9% relative wt % | Relative solubility (i-Butyl Acetate, 25.6° C., relative to 90.1° C.): 12% relative wt % | Relative solubility (i-Butyl Acetate, 41.3° C., relative to 90.1° C.): 21% relative wt % | Relative solubility (i-Butyl Acetate, 56.2° C., relative to 90.1° C.): 36% relative wt % | Relative solubility (i-Butyl Acetate, 70.2° C., relative to 90.1° C.): 58% relative wt % | Relative solubility (i-Butyl Acetate, 90.1° C., relative to 90.1° C.): 100% relative wt % | Relative solubility (i-Butyl Acetate, −2.5° C., relative to 90.1° C.): 5% relative wt % | Relative solubility (n-Butanol, 5.9° C., relative to 60.5° C.): 44% relative wt % | Relative solubility (n-Butanol, 15.5° C., relative to 60.5° C.): 49% relative wt % | Relative solubility (n-Butanol, 25.1° C., relative to 60.5° C.): 58% relative wt % | Relative solubility (n-Butanol, 40.5° C., relative to 60.5° C.): 72% relative wt % | Relative solubility (n-Butanol, 49.8° C., relative to 60.5° C.): 86% relative wt % | Relative solubility (n-Butanol, 49.9° C., relative to 60.5° C.): 86% relative wt % | Relative solubility (n-Butanol, 60.5° C., relative to 60.5° C.): 100% relative wt % | Relative solubility (n-Butanol, −5.0° C., relative to 60.5° C.): 39% relative wt % | Relative solubility (n-Butyl Propionate, 6.5° C., relative to 91.9° C.): 5% relative wt % | Relative solubility (n-Butyl Propionate, 16.8° C., relative to 91.9° C.): 8% relative wt % | Relative solubility (n-Butyl Propionate, 27.7° C., relative to 91.9° C.): 13% relative wt % | Relative solubility (n-Butyl Propionate, 41.7° C. (sample 4), relative to 91.9° C.): 16% relative wt % | Relative solubility (n-Butyl Propionate, 41.7° C. (sample 5), relative to 91.9° C.): 22% relative wt % | Relative solubility (n-Butyl Propionate, 52.0° C., relative to 91.9° C.): 32% relative wt % | Relative solubility (n-Butyl Propionate, 61.5° C., relative to 91.9° C.): 44% relative wt % | Relative solubility (n-Butyl Propionate, 69.1° C., relative to 91.9° C.): 59% relative wt % | Relative solubility (n-Butyl Propionate, 80.7° C., relative to 91.9° C.): 78% relative wt % | Relative solubility (n-Butyl Propionate, 91.9° C., relative to 91.9° C.): 100% relative wt % | Relative solubility (n-Propyl Propionate, 7.0° C., relative to 72.2° C.): 11% relative wt % | Relative solubility (n-Propyl Propionate, 17.1° C., relative to 72.2° C.): 15% relative wt % | Relative solubility (n-Propyl Propionate, 26.7° C., relative to 72.2° C.): 22% relative wt % | Relative solubility (n-Propyl Propionate, 37.4° C., relative to 72.2° C.): 29% relative wt % | Relative solubility (n-Propyl Propionate, 42.4° C., relative to 72.2° C.): 37% relative wt % | Relative solubility (n-Propyl Propionate, 52.2° C., relative to 72.2° C.): 53% relative wt % | Relative solubility (n-Propyl Propionate, 62.9° C., relative to 72.2° C.): 76% relative wt % | Relative solubility (n-Propyl Propionate, 72.2° C., relative to 72.2° C.): 100% relative wt %
Compound: CC1(C)[C@H](O)C(C)(C)[C@H]1O [trans-TMCD, trans-2,2,4,4-tetramethylcyclobutane-1,3-diol]

From patent publication US9145346B1, “Process for 2,2,4,4-tetramethylcyclobutane-1,3-diol crystallization” (Eastman Chemical Company, priority 2014, dated 2015)
